Results published in the supplement of paper PMC11451515.

Test system: NOMO1
Test: cell viability relative to DMSO control; higher = less cytotoxic
Conditions: 48 h
Summary of the method: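 Three leukemia lines were tested: NOMO1 and SEM at 500 cells/well and P12-Ichikawa at 1000 cells/well. Each was adapted for at least four passages in each medium and seeded in 5 μl in 1536-well plates, and library compounds in DMSO were pin-dosed from 47 μM to 0.79 nM in 11 threefold steps. After 48 h at 37°C, CellTiter-Glo One luminescence was read. Viability is a percentage relative to DMSO wells on each plate, with cell-free wells as background.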

[1] = HPLM + 10% dialyzed FBS, 0.000781 µM
[2] = HPLM + 10% dialyzed FBS, 0.00234 µM
[3] = HPLM + 10% dialyzed FBS, 0.00702 µM
[4] = HPLM + 10% dialyzed FBS, 0.0211 µM
[5] = HPLM + 10% dialyzed FBS, 0.0632 µM
[6] = HPLM + 10% dialyzed FBS, 0.19 µM
[7] = HPLM + 10% dialyzed FBS, 0.569 µM
[8] = HPLM + 10% dialyzed FBS, 1.71 µM
[9] = HPLM + 10% dialyzed FBS, 5.12 µM
[10] = HPLM + 10% dialyzed FBS, 15.4 µM
[11] = HPLM + 10% dialyzed FBS, 46.1 µM
[12] = RPMI 5 mM glucose + 10% FBS, 0.000781 µM
[13] = RPMI 5 mM glucose + 10% FBS, 0.00234 µM
[14] = RPMI 5 mM glucose + 10% FBS, 0.00702 µM
[15] = RPMI 5 mM glucose + 10% FBS, 0.0211 µM
[16] = RPMI 5 mM glucose + 10% FBS, 0.0632 µM
[17] = RPMI 5 mM glucose + 10% FBS, 0.19 µM
[18] = RPMI 5 mM glucose + 10% FBS, 0.569 µM
[19] = RPMI 5 mM glucose + 10% FBS, 1.71 µM
[20] = RPMI 5 mM glucose + 10% FBS, 5.12 µM
[21] = RPMI 5 mM glucose + 10% FBS, 15.4 µM
[22] = RPMI 5 mM glucose + 10% FBS, 46.1 µM
[23] = RPMI 5 mM glucose + 10% dialyzed FBS, 0.000781 µM
[24] = RPMI 5 mM glucose + 10% dialyzed FBS, 0.00234 µM
[25] = RPMI 5 mM glucose + 10% dialyzed FBS, 0.00702 µM
[26] = RPMI 5 mM glucose + 10% dialyzed FBS, 0.0211 µM
[27] = RPMI 5 mM glucose + 10% dialyzed FBS, 0.0632 µM
[28] = RPMI 5 mM glucose + 10% dialyzed FBS, 0.19 µM
[29] = RPMI 5 mM glucose + 10% dialyzed FBS, 0.569 µM
[30] = RPMI 5 mM glucose + 10% dialyzed FBS, 1.71 µM
[31] = RPMI 5 mM glucose + 10% dialyzed FBS, 5.12 µM
[32] = RPMI 5 mM glucose + 10% dialyzed FBS, 15.4 µM
[33] = RPMI 5 mM glucose + 10% dialyzed FBS, 46.1 µM

Structure (SMILES)	cell viability [1] [%]	cell viability [2] [%]	cell viability [3] [%]	cell viability [4] [%]	cell viability [5] [%]	cell viability [6] [%]	cell viability [7] [%]	cell viability [8] [%]	cell viability [9] [%]	cell viability [10] [%]	cell viability [11] [%]	cell viability [12] [%]	cell viability [13] [%]	cell viability [14] [%]	cell viability [15] [%]	cell viability [16] [%]	cell viability [17] [%]	cell viability [18] [%]	cell viability [19] [%]	cell viability [20] [%]	cell viability [21] [%]	cell viability [22] [%]	cell viability [23] [%]	cell viability [24] [%]	cell viability [25] [%]	cell viability [26] [%]	cell viability [27] [%]	cell viability [28] [%]	cell viability [29] [%]	cell viability [30] [%]	cell viability [31] [%]	cell viability [32] [%]	cell viability [33] [%]
OC[C@H]1O[C@H]([C@@H](F)[C@@H]1O)N2\C=C/C(=O)NC2=O	99.1	106	106	97.2	116	108	108	107	109	97.9	90.2	85.9	40.6	97	92.9	99.7	104	98.2	100	84.8	94.3	82.8	105	74.5	97	102	102	99.4	105	99.5	84	104	95.2
CCN(CC)C(=S)SSC(=S)N(CC)CC	97.9	112	135	130	131	121	147	132	5.58	46.8	2.75	104	112	119	120	129	110	127	127	4.7	12.4	3.34	114	120	131	122	123	128	131	120	6.51	5.46	2.56
CC(C)(C)C(=O)OCOP(=O)(COCCn1cnc2c(N)ncnc21)OCOC(=O)C(C)(C)C	86.9	99.5	93.6	108	88.3	62.2	68.2	33.9	32.2	18.9	2.01	109	96	98.2	98.6	70.3	61.4	44.4	19.9	15.8	9.1	2.21	101	93.6	91.9	93.7	78.5	66.9	47.7	28.6	14.9	14.2	2.41
C[C@H]1C[C@H]2[C@@H]3CCC4=CC(=O)C=C[C@]4(C)[C@@]3(F)[C@@H](O)C[C@]2(C)[C@@]1(O)C(=O)CO	–	–	–	–	–	–	–	–	–	–	–	120	122	128	122	123	133	131	135	120	120	106	–	–	–	–	–	–	–	–	–	–	–
NC(=O)c1ncn([C@@H]2O[C@H](CO)[C@@H](O)[C@H]2O)n1	116	134	110	117	112	103	88	69.2	55.4	56.8	29.6	104	129	115	108	113	110	102	85.4	76.7	74.5	36.7	124	110	116	115	114	104	89.4	69.3	58.2	68.2	48.9
O=C1\C=C/C[C@@H]2[C@H]3CCCN4CCC[C@@H](CN12)[C@@H]34	116	110	117	106	125	107	101	107	121	89.2	104	90.2	94.3	97.1	90.9	95.4	93	93.4	85.9	91.8	93	93.4	106	107	103	116	94.1	104	90.3	106	105	98.9	86.6
CC(=O)NC(CS)C(=O)O (stereo not given)	81.1	93.2	104	82.7	96.9	81.6	78.8	97	78.2	26.7	27.5	72.7	81.1	75.3	74.4	75.8	75.2	82.7	79.5	84.5	30.5	70.4	81.1	77.8	86.7	88.9	88.1	75.8	85.6	80.1	90.7	27.8	75.9
Cn1c(Nc2ccc(C(F)(F)F)cc2)nc2cc(Oc3ccnc(-c4nc(C(F)(F)F)c[nH]4)c3)ccc21	125	125	120	125	144	145	140	129	114	100	45.7	124	123	118	134	130	141	124	149	122	119	29.5	121	129	121	127	140	130	125	125	104	106	26.8
COc1cc2c(Oc3ccc(NC(=O)C4(C(=O)Nc5ccc(F)cc5)CC4)cc3F)ccnc2cc1OCCCN1CCOCC1	74.7	83.2	79.3	92	89.5	83.1	84.3	61	63.4	28.5	4.74	80.8	86.3	91.7	94.6	85.8	85.1	86.8	72.8	41	36.9	4.62	81.2	75.3	84.8	93.8	85.6	72.1	80.9	46.5	43.3	29.6	5.96
CC(=O)Nc1ccc([C@H](C)C(=O)Nc2ncc(C(C)C)s2)cc1	109	123	97.2	99	106	103	119	96.8	79.1	6.43	4.34	88.4	99.9	84.9	90.8	110	93.6	104	84.5	44.6	9.84	4.44	104	93.5	96.3	100	95.2	92	95.4	104	68.2	8.22	4.09
ClC1=CC(=CC=C1)N2CCN(CCCN3\N=C4\C=C/C=C\N4C3=O)CC2	–	–	–	–	–	–	–	–	–	–	–	113	121	123	137	126	137	142	147	137	141	137	–	–	–	–	–	–	–	–	–	–	–
CCOc1cc(N)c(Cl)cc1C(=O)NCC1CN(Cc2ccc(F)cc2)CCO1 (stereo not given)	85.2	120	125	118	119	120	102	120	128	111	107	102	115	106	108	114	108	106	113	122	109	104	113	115	122	118	116	111	125	112	111	107	107
CCCCNc1cc(C(=O)O)cc([S+](N)(=O)[O-])c1Oc1ccccc1	–	–	–	–	–	–	–	–	–	–	–	118	113	128	127	129	115	124	120	136	146	135	–	–	–	–	–	–	–	–	–	–	–
CC(=O)O[C@@]1(CC[C@H]2[C@@H]3\C=C(C)/C4=C/C(=O)CC[C@]4(C)[C@H]3CC[C@]12C)C(C)=O	115	111	107	96.1	109	123	130	107	110	116	119	100	102	99.9	110	101	108	107	110	109	99	108	88.1	92.1	95.5	113	102	112	107	118	105	86.8	112
O=C(O)c1ccc(-n2nc(-c3ccccc3O)nc2-c2ccccc2O)cc1	90	97.1	111	90.6	108	113	95.4	86.4	91.2	74.7	44.4	94.9	92.5	93.5	94	104	96.3	93.5	103	96	90.5	29.8	94.3	103	96.4	89.2	87	88.4	89.5	94.3	79.5	68	24.2
NC(CO)(CO)CCc1ccc(Sc2cccc(OCc3ccccc3)c2)cc1Cl	108	107	118	118	124	129	111	121	63.1	38.6	8.35	104	103	116	122	107	107	117	115	120	40.1	5.44	93.5	103	99.1	107	114	109	105	115	113	104	5.71
CC\1=C(C(=O)N(\C=C1)C2=CC=C(C=C2)C3=NC=CO3)/C4=CC5=CN=C(N)N=C5C=C4	98.8	107	126	112	108	117	122	122	123	108	94.9	97	103	96.1	104	112	116	114	107	124	113	100	99.1	89.6	103	119	123	107	108	101	107	117	90
